Measured values from PubChem BioAssay (NCI).
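1) Cells in 96-well plates. 2) Compound, 48 h, 5 concentrations. 3) Linear interpolation between surrounding doses. 4) Unreached endpoint = highest concentration. TGI: total growth inhibition.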

Legend:
Assay in all cases: inhibition of tumour cell growth, NCI panel, 48 h
CAKI-1 renal = test system: CAKI-1 renal
UACC-62 melanoma = test system: UACC-62 melanoma
LOX IMVI melanoma = test system: LOX IMVI melanoma
OVCAR-8 ovarian = test system: OVCAR-8 ovarian
SK-MEL-2 melanoma = test system: SK-MEL-2 melanoma
SF-268 CNS = test system: SF-268 CNS
TK-10 renal = test system: TK-10 renal
NCI-H226 lung = test system: NCI-H226 lung
SF-295 CNS = test system: SF-295 CNS
MALME-3M melanoma = test system: MALME-3M melanoma
SN12C renal = test system: SN12C renal
HL-60(TB) leukemia = test system: HL-60(TB) leukemia
MCF7 breast = test system: MCF7 breast

SMILES	TGI (CAKI-1 renal) [µM]	TGI (UACC-62 melanoma) [µM]	TGI (LOX IMVI melanoma) [µM]	TGI (OVCAR-8 ovarian) [µM]	TGI (SK-MEL-2 melanoma) [µM]	TGI (SF-268 CNS) [µM]	TGI (TK-10 renal) [µM]	TGI (NCI-H226 lung) [µM]	TGI (SF-295 CNS) [µM]	TGI (MALME-3M melanoma) [µM]	TGI (SN12C renal) [µM]	TGI (HL-60(TB) leukemia) [µM]	TGI (MCF7 breast) [µM]
CC1=NN(c2nc(N)nc(/C(C#N)=C\c3cccc([N+](=O)[O-])c3)n2)C(C)(C)C1	> 94.1	> 40.2	36.3	54	> 29.9	> 65.1	58.8	> 42.7	52	> 54.9	> 65.3	4.61	> 23
CC1CN=C(Nc2ccc(F)c(Cl)c2)S1 (stereo unspecified)	> 100	> 100	> 100	> 100	> 100	> 100	> 100	> 100	> 100	> 100	–	> 100	> 100
Cc1cccc2c1c(=O)c1c(O)cc(O)cc1n2C	> 100	> 100	> 100	> 100	> 100	> 100	> 100	> 100	> 100	> 100	> 100	> 100	> 100
O=C1O/C(=C\c2ccc(O)cc2)C(c2ccc(O)c(Cl)c2)=C1Cl	> 100	> 100	> 100	> 100	77.4	> 100	> 100	> 100	> 100	74.5	> 100	94.7	47.4
O=C(C/C=C/c1ccccc1)c1ccccc1	31.7	26.4	30.3	49.1	–	56.8	65.6	66.6	> 100	–	60.9	66	32.7
N#Cc1ccc(C2NN=CC23C(=O)c2ccccc2OC3c2ccccc2)cc1 (stereo unspecified)	> 100	> 100	> 100	> 100	> 100	> 100	96.3	> 100	> 100	> 100	> 100	> 100	87.4
CN(CCCn1ccnc1[N+](=O)[O-])CCCn1ccnc1[N+](=O)[O-]	> 100	> 100	> 100	> 100	> 100	> 100	> 100	> 100	> 100	> 100	> 100	> 100	> 100
COC(=O)C1=NN2c3ccccc3CN([C@@H](C)c3ccccc3)C(=O)[C@@H]2[C@H]1c1ccccc1	> 100	> 100	> 100	> 100	> 100	> 100	> 100	> 100	> 100	> 100	> 100	> 100	> 100
Cc1ccc(N=C2C(c3ccccc3)=C(SC3=C(c4ccccc4)C(=Nc4ccc(C)cc4)c4ccccc43)c3ccccc32)cc1	65.6	> 51.7	> 100	24.7	> 78.7	18.8	> 100	> 63.1	27.4	–	77.1	17.8	> 100
Cc1csc(NNC(=O)Nc2ccccc2)n1	> 100	> 100	> 100	> 100	> 100	> 100	–	> 100	> 100	> 100	> 100	> 100	> 100
C=CC1(C)OC2(CCN(C(=O)OCC)CC2)OC1C (stereo unspecified)	> 100	> 100	> 100	> 100	> 100	> 100	> 100	> 100	> 100	> 100	–	> 100	> 100
c1ccc([P+](c2ccccc2)(c2ccccc2)C2c3ccccc3-c3ccccc32)cc1	69.1	5.02	4.96	10.1	3.87	9.37	9.21	5.94	5.35	15.1	7.29	3.92	10
CC(O)[C@@]1(c2ccccc2)CC2(CCN(C)CC2)O[C@H]1C (stereo partly specified)	> 100	> 100	> 100	> 100	> 100	> 100	> 100	> 100	> 100	> 100	–	95	> 100
c1ccc([P+](CCCCCC[P+](c2ccccc2)(c2ccccc2)c2ccccc2)(c2ccccc2)c2ccccc2)cc1	> 100	> 100	38.6	71.2	–	> 100	> 100	> 100	> 100	> 100	> 100	67	74.1
CC1=C2C3OC(=O)C(C)C3CCC2(C)C=CC1=Nc1ccccc1 (stereo unspecified)	–	> 100	> 100	> 100	> 100	> 100	–	> 100	> 100	> 100	> 100	> 100	> 100
COC1=CC(=O)C2=C(C[C@@]3(C)C(=C2)C(CO)=CC[C@H]3O)C1=O	> 100	32.4	38.9	32.9	–	32.7	> 100	29.2	41.2	> 100	32.8	14.1	32.3
CC(=O)/C(C=Nc1c(C)n(C)n(C)c1=O)=C(/O)c1ccccc1	> 50	> 50	> 50	–	> 50	> 50	> 50	> 50	> 50	> 50	> 50	> 50	> 50
C/C(Cc1ccc2c(c1)OCO2)=N\NC(=O)C(C)Sc1nnc(SC(C)C(=O)N/N=C(\C)Cc2ccc3c(c2)OCO3)s1 (stereo unspecified)	> 100	> 100	> 100	> 100	> 100	> 100	> 100	> 100	> 100	> 100	–	> 100	> 100
